Source: patent US7482008B1, “Human T cell reactive feline protein (TRFP) isolated from house dust and uses therefor” (Merck Patent GmbH, priority 1989, dated 2009)

Key:
T cell = T cell reactivity of dimeric recombinant chain 1 and alkali treated TRFP; type: cell-based
IgE = IgE binding of dimeric recombinant chain 1 and alkali treated TRFP
human IgE [1] = test: ELISA of human IgE binding, plasma from patient #669; conditions: patient #669 plasma
Procedure: Corning assay plates (#25882-96) were coated with 10 μg/ml of each coating antigen (i.e., TRFP, chain 1 (recombinant chain 1 of TRFP), chain 2 (recombinant chain 2 of TRFP), peptide XYZ, peptide XZY, peptide YXZ, peptide YZX, peptide ZXY and peptide ZYX) listed in FIG. 34 at 50 μl/well and incubated overnight at 4° C. The coating antigens were removed and the wells were blocked with 0.5% gelatin in PBS, 200 μl/well for 2 hours at room temperature. Plasma from patient #669 was serially diluted with PBS-Tween 20 (PBS with 0.05% nonionic detergent Tween-20 Sigma, St. Louis Mo.) and 100 μl/well was added and incubated overnight at 4° C. (plasma dilutions are tested in duplicate). The second antibody (biotinylated goat anti-Human IgE, 1:1000, Kirkegaard & Perry Laboratories Inc. Gaithersburg, Md.), was added at 100 μl/well for one hour at room temperature. This solution was removed and streptavidin-HRPO, 1:10,000 (Southern Biotechnology Associates, Inc., Birmingham, Ala.) was then added at 100 μl/well for one hour at room temperature (all wells were washed three times with PBS-Tween between each incubation step). TMB Membrane Peroxidase Substrate system (Kirkegaard & Perry Laboratories) was freshly mixed, and added at 100 μl/well. The color was allowed to develop for 2-5 minutes. The reaction was stopped by the addition of 100 μl/well of 1M phosphoric acid. Plates were read on a Microplate EL 310 Autoreader (Biotek Instruments, Winooski, Vt.) with a 450 nm filter. The absorbance levels of duplicate wells were averaged.

human IgE [2] = test: SDS/PAGE Western immunoblot of human IgE binding, plasma from patient #417; conditions: patient #417 plasma
Procedure: Western immunoblot analysis of the peptides produced in above was performed. The concentration of all protein samples (e.g., TRFP, recombinant chain 1 of TRFP, recombinant chain 2 of TRFP, peptide XYZ, peptide XZY, peptide YXZ, peptide YZX, peptide ZXY and peptide ZYX) for gel electrophoresis was determined by the BCA method (Pierce Co.). All protein samples were loaded on the gel at 5 μg/lane except TRFP at 10 μg/lane. Protein separation was carried out on a 15% acrylamide gel, and transfer was performed by electroblotting at 1.5 Amps for 1.5 hours onto nitrocellulose paper (Schleicher and Schuell, 0.1 microns) in a Hoeffer apparatus according to the protocol of Towbin, H., T. Stachlin, and J. Gordon, PNAS 76:4350 (1979). Proteins were rinsed in blot solution (25 mM Tris-HCl 7.5, 0.171 M NaCl and 0.5 ml/liter Tween 20). The blot was then blocked for one hour in blocking solution (1% milk in blot solution). Plasma from patient #417, used as a primary antibody source, was diluted in blocking solution to 10% and preabsorbed for 1.5 hours with unused nitrocellulose (2 cm×15 cm). The prepared human plasma was then incubated overnight on an orbital shaker with the protein blot section of interest. Following the first antibody incubation the blot section was washed three times, each wash involved a fifteen minute incubation in blot solution. The second antibody, specific for human IgE (biotinylated goat anti-human IgE, KPL Inc.), was diluted 1:2500 in blot solution and the incubation proceeded for two hours. Excess second antibody was subsequently removed by three 15 minute incubations with blot solution. ^125I Iodinated streptavidin (Amersham) was diluted 1:2500 in blot solution and incubated with blots for 1 hour, at 2 μCi in a 50 ml incubation volume. Blot sections were then washed with blot solution until the detectable radioactivity in the waste solution decreased to background levels. The blot section was then wrapped in saran wrap and exposed to film overnight with a cronex intensifying screen at −80° C.

## mild alkali treated TRFP: mild alkali treated TRFP
T cell
  T cell reactivity: maintains T cell reactivity
IgE
  IgE binding: markedly reduced IgE binding

## recombinant chain 1 of TRFP in a dimeric form: recombinant chain 1 of TRFP in a dimeric form
T cell
  T cell reactivity: maintains T cell reactivity
IgE
  IgE binding: markedly reduced IgE binding

B1: peptide ZXY: recombinant peptide: peptide Z, peptide X and peptide Y linked in this order (protein)
chain: MGHHHHHHEFFFAVANGNELLLDLSLTKVNATEPERKRDVDLFLTGTPDEYVEQVAQYKALPVVLENARILKNCVDAKMTEEDKE
Human IgE [1]
  IgE binding, ELISA: clear reactivity with IgE
Human IgE [2]
  IgE binding, Western immunoblot: show IgE binding
